Values joined by “and” are separate entries in the source; they are usually repeats but may differ in a detail not shown here. Identical values can stand only once.
What was measured:
[1] = test system: carotid arteries of Apoe−/− mice; assay: Leukocyte adhesion in ex vivo mounted atherosclerotic carotid arteries under flow (MPM); design: species or system mouse
Procedure: Monocyte adhesion experiments in atherosclerotic carotid arteries under physiological flow conditions ex vivo have been established[14],[75] and were performed by a slight modification of this procedure. Briefly, seven-week-old Apoe^−/− mice were fed a Western-type HFD (0.2% cholesterol) for 12 weeks. […] On day 3, arteries were prepared and mounted into an arteriograph chamber. […] Mouse leukocytes isolated from the bone marrow of msR4M-L1- or vehicle-treated atherogenic Apoe^−/− mice were stained with fluorescent Green CMFDA or Red CMPTX (Thermo Fisher Scientific). […] The red- and green-stained cell pools were mixed at a 1:1 ratio and 3 × 10^6 cells in 6 mL perfused into the artery of msR4M-L1- or vehicle-treated mice, respectively. Arteries were scanned by MPM using a multispectral TCS SP8 DIVE instrument with filter-free 4TUNE NDD detection module (Leica) and the number of adherent and transmigrated leukocytes determined by scanning multiphoton excitation. Vessel structure (and plaques) were visualized by second harmonic generation (SHG). Image acquisition, visualization, and processing was performed using the LAS X SP8 software package with LAS X 3D visualization and analysis (Leica) and LAS X HyVolution 2 packages from Leica/SVI Huygens, (Laapersveld, NL).

[2] = mouse, in vivo
Apoe−/− mice on HFD = assay: In vivo model of atherosclerosis (lesions, lesional macrophages, tolerability)
Procedure: Seven-eight-week-old female Apoe^−/− mice were randomly divided into two groups of 11–12 mice each and both groups put on a Western-type HFD (0.21% cholesterol) for 4.5 weeks. Mice develop early-to-intermediate atherosclerotic lesions in this model. […] At the end of the experiment, mice were sacrificed, blood collected by cardiac puncture and saved for blood cell and lipid measurements and mice transcardially perfused with saline. Hearts, proximal aortas and carotid arteries were prepared and fixed for plaque morphometry and lesion analysis.
Quantification of plaques and vessel morphometry (ORO and H&E staining). Cut heart tissues containing aortic root were embedded in Tissue Tek optimum cutting temperature (OCT) substance (Sakura Finetek, Osaka, Japan) and frozen at −80 °C. Eight-µm sections were prepared for ORO staining and plaque immune cell analysis. The accumulation of macrophages in aortic root lesions was determined by an anti-MAC-2 antibody (1:100 dilution) followed by Cy5-conjugated secondary antibody. Nuclei were visualized with DAPI. The aortic arch was cut, fixed in 4% paraformaldehyde (PFA) and embedded in paraffin. Four-µm sections containing the three branches (brachiocephalic, left common carotid, and left subclavian artery) were prepared and stained with hematoxylin/eosin (H&E) for vessel morphometry. Images were captured with a Leica DMi8 microscope and quantified using ImageJ.

human CXCR4 [3] = assay: MIF-triggered CXCR4-specific signaling in yeast (lacZ read-out); assay type: cell-based; conditions: co-incubation with MIF
Procedure: (§1) Briefly, yeast transformants stably expressing human CXCR4 were grown overnight at 30 °C in yeast nitrogen base selective medium (Formedium, UK). Cells were diluted to an OD600 of 0.2 and grown to an OD600 of 0.3–0.6. […] OD600 was measured and activation of CXCR4 signaling quantified by β-galactosidase activity using a commercial BetaGlo Kit (Promega, Mannheim, Germany).

[4] = test system: circulating inflammatory cytokines; assay: Plasma cytokine array in treated Apoe−/− mice; assay type: in vivo, mouse; conditions: reductions for IL-1α, IL-16, TNF-α, CXCL13/BLC; 6 vs 6 mice
Procedure: Plasma samples were diluted (1:10) in array buffer; incubated with antibody detection cocktail for 1 h at RT, exposed to the blocked membranes (overnight, 4 °C), membranes washed and incubated with streptavidin-HRP conjugate working solution (30 min, RT). Membranes were developed with Chemi-Reagent Mix and analyzed by Odyssey® Fc imager. The average signal (mean signal intensity) of duplicate spots was quantified by ImageJ.

[5] = test system: primary mouse spleen B lymphocytes; assay: MIF-triggered Transwell chemotaxis of primary splenic B cells;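 on all read-outs here: migration tracked over 4 h at 37 °C, read out as transmigrated cells counted by flow cytometry with absolute counting beads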; assay type: cell-based; conditions: for MIF-elicited chemotaxis: Suppl. Fig. 15b, individual replicates, n = 4
Procedure: Briefly, splenic B cells were isolated by negative depletion using a Pan B Cell Isolation Kit (Miltenyi Biotec, Bergisch Gladbach, Germany). […] Chemotaxis was followed for 4 h at 37 °C in a humidified atmosphere of 5% CO2. Migrated cells were counted by flow cytometry using CountBright™ Absolute Counting Beads (Molecular Probes-Invitrogen).

in vivo = conditions: C57BL/6, mouse, ip, 50 ug per mouse
Procedure: Plasma was immediately separated by centrifugation at 3000 rpm for 10 min at 4 °C, and placed on ice protected from light. Plasma aliquots were diluted (1:1) with SDS-PAGE sample buffer, boiled, analyzed in 10–20% Tricine SDS-PAGE gels, and red fluorescent bands imaged by Odyssey® Fc imager.

human CXCR4 [6] = assay: CXCL12-triggered CXCR4-specific signaling in yeast (lacZ read-out); assay type: cell-based
Procedure: as §1

[7] = test system: human monocyte-derived macrophages; assay: LDLR and CXCR4 cell surface levels in macrophages (flow cytometry, Reviewer-only Figure 4); assay type: cell-based
Procedure: crosstalk, or might even imply that CXCR4 and LDLR colocalize/complex and are subjected to a joint internalization event.
We feel that these studies warrant further in-depth (and mechanistic) exploration, which are […]
in the manuscript. We have therefore prepared them as Reviewer-only Figure 4 below.
Supplementary part of the manuscript, we are happy to do so. […]
expression and endocytosis in human monocyte-derived macrophages. LDLR and CXCR4 cell surface levels were measured by flow cytometry. Experiments were performed in the presence of LDL and the […]
containing 100µg/mL penicillin, 100 µg/mL streptomycin, and 0.2% BSA) for 15 min at 37°C and subsequently exposed to LDL (25 µg/mL) for 15 min. After washing with PBS, cells were collected and incubated with anti-hLDLR-APC (1:100, R&D Systems, FAB2148A) and anti-CXCR4-PE (1:100, R&D Systems, FAB170P) at 4°C for 1 h. MIF stimulation enhances LDL-triggered internalization of LDLR and […]
The data shown are from one of two experiments
MIF dependent adhesion can be blocked, it is unclear whether MIF dependent adhesion to TNF-activated (since this stimulus seems relevant in in vivo settings) endothelial cells can be […]
Response: Thank you for this important point. […]
experiment and now include static adhesion data using TNF-primed endothelial cells in the […]

CC[C@H](C)[C@H](NC(=O)[C@H](Cc1ccc(O)cc1)NC(=O)[C@H](CCCNC(=N)N)NC(=O)[C@H](CC(=O)O)NC(=O)CCCCCCCCCCCNC(=O)CCCCCNC(=O)[C@H](CCCCN)NC(=O)[C@H](CS)NC(=O)[C@H](CC(C)C)NC(=O)[C@H](Cc1ccccc1)NC(=O)[C@H](CC(N)=O)NC(=O)CNC(=O)[C@H](Cc1ccccc1)NC(=O)[C@H](Cc1ccc(O)cc1)NC(=O)[C@H](Cc1c[nH]c2ccccc12)NC(=O)[C@H](CC(N)=O)NC(=O)[C@H](C)NC(=O)[C@@H](NC(=O)[C@H](C)NC(=O)[C@@H](N)CC(=O)O)C(C)C)C(=O)N[C@@H](CS)C(=O)N[C@@H](CC(=O)O)C(=O)N[C@@H](CCCNC(=N)N)C(=O)N[C@@H](Cc1ccccc1)C(=O)N[C@@H](Cc1ccc(O)cc1)C(=O)N1CCC[C@H]1C(=O)N[C@@H](CC(N)=O)C(=O)N[C@@H](CC(=O)O)C(=O)N[C@@H](CC(C)C)C(=O)N[C@@H](Cc1c[nH]c2ccccc12)C(=O)N[C@H](C(N)=O)C(C)C [msR4M-L1, CXCR4-ECL1[97–110]-6-Ahx-12-Ado-ECL2[182–196]]
number of luminally adhering leukocytes ([1]; msR4M-L1 100 µg once daily for 3 days before vessel harvest, 5–6 carotid arteries per group): significantly reduced | Fig. 5l, leukocyte adhesion in ex vivo mounted carotid arteries ([1]; msR4M-L1 group, individual values, n = 6): 12 and 45 and 36 and 16 and 32 | Body weight [2]: 22.3 ± 0.2 g | toxicity or side effects (Apoe−/− mice on HFD; 50 µg i.p. for 4.5 weeks): No toxicity or side effects were noted | atherosclerotic lesion size in aortic arch (Apoe−/− mice on HFD; Apoe−/− mice, HFD 4.5 weeks, 50 µg (2.5 mg kg^−1) i.p. three times per week, HE, 7 vs 7 mice): significantly decreased | Lesion area (x10to3 µm2) (Apoe−/− mice on HFD; Fig. 6g, msR4M-L1-treated animals, per animal, n = 11): 184.774 x10to3 µm2 and 104.198 x10to3 µm2 and 151.257 x10to3 µm2 and 126.04 x10to3 µm2 and 45.213 x10to3 µm2 and 130.67 x10to3 µm2 and 89.727 x10to3 µm2 and 63.265 x10to3 µm2 and 177.705 x10to3 µm2 and 117.601 x10to3 µm2 and 70.989 x10to3 µm2 | number of lesional macrophages, MAC-2 staining (Apoe−/− mice on HFD; as E123, 11 vs 12 mice): significantly decreased | atherosclerotic lesion size in aortic root (Apoe−/− mice on HFD; as E123, ORO, 12 vs 12 mice): significantly decreased | effect on MIF-triggered CXCR4 reporter signal (human CXCR4 [3]): blocked the β-galactosidase reporter signal in a concentration-dependent manner | circulating inflammatory cytokine levels [4]: marked reduction | inhibition of MIF-mediated B-cell chemotaxis ([5]; 16 nM MIF, peptide at 5-fold molar excess (80 nM)): fully blocked | MIF-elicited chemotaxis ([5]; log(msR4M-L1) (M) = -6.495): 1.49 and 1 and 1.46 and 1.55 | MIF-elicited chemotaxis ([5]; log(msR4M-L1) (M) = -6.796): 1.24 and 1.03 and 1.49 and 1.3 | MIF-elicited chemotaxis ([5]; log(msR4M-L1) (M) = -7.097): 1.2 (3×) and 1.12 | MIF-elicited chemotaxis ([5]; log(msR4M-L1) (M) = -7.495): 1.18 and 1.24 and 2 and 1.77 | MIF-elicited chemotaxis ([5]; log(msR4M-L1) (M) = -7.796): 1.67 (2×) and 2.32 and 1.89 | MIF-elicited chemotaxis ([5]; log(msR4M-L1) (M) = -10): 2.52 and 2.18 and 3 and 2.83 | level at time molar (in vivo): 20 to 50 nM | effect on CXCL12/CXCR4-elicited signaling (human CXCR4 [6]): remained unaffected | LDLR cell surface level (Q3), MIF + msR4M-L1 ([7]; 80 nM MIF, 400 nM msR4M-L1, LDL 25 µg/mL, without MIF 15.1%, MIF alone 8.99%, one of two experiments): 12.6% | CXCR4 cell surface level (Q3), MIF + msR4M-L1 ([7]; as E143, without MIF 39%, MIF alone […]): 48.7%
